Data on 10 compounds can be found in ChEMBL document CHEMBL5252627, “Antiangiogenic Pterocarpan and Flavonoid Constituents of Erythrina lysistemon” (J Nat Prod, 2023).

By GI50 is commonly meant the concentration that inhibits growth by half.

The nature of series [1]: Antiproliferative activity against human HREC cells assessed as cell growth inhibition incubated for 44 hrs by AlamarBlue reagent based fluorescence assay. In kind it is functional. Background: Resazurin is reduced to fluorescent resorufin, in cell work by metabolically active cells.
A short description of series [2]: Cytotoxicity against human ARPE-19 cells assessed as cell growth inhibition incubated for 44 hrs by AlamarBlue reagent based fluorescence assay. It counts as toxicity.
The subject of a further series is HREC. Nature of the series: Antiangiogenic activity against human HREC cells assessed as inhibition of invitro tubule formation by measuring tubule length at 0.05 to 50 uM and measured after 8 hrs by Matrigel based bright-field microscopy. In kind it is functional, cell-based. The note with it: dose 0.05-50 µM.

Take `CC(C)=CCc1c(O)ccc2c1O[C@H]1c3ccc(O)cc3OC[C@@H]21` [PHASEOLLIDIN]: the GI50 in series [1] is more than 100 µM. In addition, in series [2], the GI50 at 44 h was more than 100 µM.
As for `CC(C)=CCc1c(O)ccc2c1OC[C@H]1c3ccc4c(c3O[C@@H]21)CC(O)C(C)(C)O4` (some centres not stated), the Activity result in the series with HREC is “Dose-Dependent Effect”. In addition, the GI50 in series [1] is 4.67 µM. The GI50 at 44 h in series [2] is more than 100 µM.
As for `CC(C)=CCc1c(O)ccc2c1O[C@H]1c3ccc(O)c(CC=C(C)C)c3OC[C@@H]21` [ERYBRAEDIN A], the Activity entry in the series on HREC is “Dose-Dependent Effect”. For the same compound, in series [1], the GI50 amounted to 4.21 µM. In addition, the GI50 at 44 h in series [2] is more than 100 µM.
In the case of `CC(C)=CCc1cc2c(cc1O)OC[C@H]1c3ccc(O)c(CC=C(C)C)c3O[C@@H]21` [ERYBRAEDIN C], the Activity entry in the series with HREC was “Dose-Dependent Effect”. Moreover, the GI50 in series [1] was determined as 2.57 µM. Further, the GI50 at 44 h in series [2] was more than 100 µM.
The like results for `CC1(C)C=Cc2c(ccc3c2O[C@H]2c4ccc(O)cc4OC[C@@H]32)O1` [PHASEOLIN] were, in that order, “Dose-Dependent Effect”, 4.65 µM and more than 100 µM.
With `COc1ccc2c(c1CC=C(C)C)O[C@H]1c3ccc(O)cc3OC[C@@H]21` [SANDWICENSIN], the Activity result in the series on HREC is “Dose-Dependent Effect”. Besides, the GI50 in series [1] was 5.91 µM. Besides, in series [2], the GI50 at 44 h is more than 100 µM.
For `CC1(C)C=Cc2c(ccc3c2O[C@H]2c4ccc5c(c4OC[C@@H]32)C=CC(C)(C)O5)O1`, the GI50 in series [1] is more than 100 µM. For the same compound, the GI50 at 44 h in series [2] was more than 100 µM.
Consider `CC(C)=CCc1cc2c(c(CC=C(C)C)c1O)OC[C@@H](c1ccc(O)cc1O)C2=O`, for which the Activity entry in the series with HREC was “Dose-Dependent Effect”. The GI50 in series [1] is 5.85 µM. In series [2], the GI50 at 44 h was more than 100 µM.
The like results for `CC(C)=CCc1cc2c(c(CC=C(C)C)c1O)OC[C@@H](c1ccc(O)cc1O)C2` were, in that order, “Dose-Dependent Effect”, 3.65 µM and more than 100 µM.
Regarding `COc1ccc(CC2COc3cc(OC)c(OC)c(OC)c3C2=O)cc1OC(=O)[C@H](Cc1ccccc1)NC(=O)OC(C)(C)C` (some centres not stated), the GI50 in series [1] was found to be 0.018 µM. For the same compound, the 50% growth inhibitory concentration (GI50) at 44 h in series [2] is more than 100 µM.
